molecular target: ERK2 enzyme (Homo sapiens (Human), UniProt P28482); assay: Inhibition assay of ERK (Z'-LYTE kinase assay, Ser/Thr 3 peptide substrate); assay type: biochemical; conditions: In vitro ERK2 enzyme, 100 μM ATP
Sequence (P28482 whole entry): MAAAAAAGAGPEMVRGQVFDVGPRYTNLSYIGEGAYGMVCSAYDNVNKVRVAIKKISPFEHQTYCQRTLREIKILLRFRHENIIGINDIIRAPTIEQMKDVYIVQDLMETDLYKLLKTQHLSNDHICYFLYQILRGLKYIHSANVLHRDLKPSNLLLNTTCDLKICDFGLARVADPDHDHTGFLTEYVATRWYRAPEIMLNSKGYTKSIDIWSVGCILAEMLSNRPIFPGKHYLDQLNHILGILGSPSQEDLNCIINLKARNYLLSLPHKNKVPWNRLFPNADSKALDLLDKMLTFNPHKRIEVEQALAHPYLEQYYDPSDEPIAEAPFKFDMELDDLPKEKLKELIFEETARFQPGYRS

IC50, > 1 µM:
COc1ncc(-c2n[nH]c3cc4c(cc23)CN(Cc2cccc(Cl)c2)CC(=O)N4)cn1 [Compound 98]

IC50, 0.25 to 1 µM:
O=C1Nc2cc3[nH]nc(Br)c3cc2CN1Cc1cccc(Cl)c1 [Compound 25]

IC50, < 0.05 µM:
COc1ncc(-c2n[nH]c3cc4c(cc23)CN(Cc2ccc(F)cc2F)C(=O)N4)cn1 [Compound 99]
COc1ncc(-c2n[nH]c3cc4c(cc23)CN(Cc2cccc(C#N)c2)C(=O)N4)cn1 [Compound 125]
Cc1cc(-c2n[nH]c3cc4c(cc23)CN(Cc2ccc(F)cc2F)C(=O)N4)ccn1 [Compound 11]
COc1cccc(F)c1CN1CCC[C@@H](N2Cc3cc4c(-c5ccnnc5)n[nH]c4cc3NC2=O)C1 [Compound 126]
Cc1cc(-c2n[nH]c3cc4c(cc23)CN(C(C)CC(C)C)C(=O)N4)ccn1 (stereo not drawn) [Compound 53]
[2H]C([2H])(c1ccccc1)N1CCC[C@@H](N2Cc3cc4c(-c5ccnc(C)c5)n[nH]c4cc3NC2=O)C1 [Compound 148]
COc1ncc(-c2n[nH]c3cc4c(cc23)CN(CCc2ccc(F)cc2)C(=O)N4)cn1 [Compound 80]
COc1ccc(-c2n[nH]c3cc4c(cc23)CN(Cc2ccc(F)cc2)C(=O)N4)cn1 [Compound 76]
Cn1cc(-c2n[nH]c3cc4c(cc23)CN(Cc2ccc(F)c(Cl)c2)C(=O)N4)cn1 [Compound 31]
O=C1Nc2cc3[nH]nc(-c4ccnnc4)c3cc2CN1Cc1ccc(F)cc1F [Compound 114]
Cc1cc(-c2n[nH]c3cc4c(cc23)CN([C@H](CO)c2cccc(Cl)c2)C(=O)N4)ccn1 [Compound 26]
O=C1Nc2cc3[nH]nc(-c4ccnnc4)c3cc2CN1Cc1ccc(F)cc1 [Compound 97]
CCC(=O)NCCCN1Cc2cc3c(-c4cnc(OC)nc4)n[nH]c3cc2NC1=O [Compound 105]
Cc1cc(-c2n[nH]c3cc4c(cc23)CN(C2CCOCC2)C(=O)N4)ccn1 [Compound 44]
Cc1cc(-c2n[nH]c3cc4c(cc23)CN([C@@H]2CCCN(Cc3cc(F)cc(F)c3)C2)C(=O)N4)ccn1 [Compound 163]
COc1ccc(CN2Cc3cc4c(-c5ccnc(C)c5)n[nH]c4cc3NC2=O)cc1 [Compound 10]
Cc1cc(-c2n[nH]c3cc4c(cc23)CN([C@@H]2CCCN(Cc3ccc(Cl)cc3)C2)C(=O)N4)ccn1 [Compound 159]
Cc1ncc(-c2n[nH]c3cc4c(cc23)CN(Cc2cccc(Cl)c2)C(=O)N4)cn1 [Compound 90]
Cc1cc(-c2n[nH]c3cc4c(cc23)CN([C@@H]2CCCN(Cc3ncccc3C)C2)C(=O)N4)ccn1 [Compound 168]
Cc1cc(-c2n[nH]c3cc4c(cc23)CN(CCO)C(=O)N4)ccn1 [Compound 43]
Cc1cc(-c2n[nH]c3cc4c(cc23)CN([C@@H]2CCCN(c3cccc(Cl)c3)C2)C(=O)N4)ccn1 [Compound 174]
COc1ccc(-c2n[nH]c3cc4c(cc23)CN(Cc2cccc(Cl)c2)C(=O)N4)cn1 [Compound 75]
Cc1cc(-c2n[nH]c3cc4c(cc23)CN([C@@H]2CCCOC2)C(=O)N4)ccn1 [Compound 49]
Cc1cc(-c2n[nH]c3cc4c(cc23)CN(Cc2ccc(CC#N)cc2)C(=O)N4)ccn1 [Compound 65]
O=C1Nc2cc3[nH]nc(-c4ccnnc4)c3cc2CN1Cc1cc(F)cc(F)c1 [Compound 127]
Cc1cc(-c2n[nH]c3cc4c(cc23)CN([C@@H]2CCCN(Cc3ccc(F)cn3)C2)C(=O)N4)ccn1 [Compound 132]
Cc1cc(-c2n[nH]c3cc4c(cc23)CN([C@@H]2CCCN(Cc3ccc(F)cc3F)C2)C(=O)N4)ccn1 [Compound 196]

IC50, 0.05 to 0.25 µM:
COc1ncc(-c2n[nH]c3cc4c(cc23)CN(C)C(=O)N4)cn1 [Compound 96]
Cc1cc(-c2n[nH]c3cc4c(cc23)CN(C2CN(CCc3ccccc3)C2)C(=O)N4)ccn1 [Compound 192]
Cc1cc(-c2n[nH]c3cc4c(cc23)CN(C2CCN(CCc3ccccc3)CC2)C(=O)N4)ccn1 [Compound 157]
Cc1cc(-c2n[nH]c3cc4c(cc23)CN([C@@H]2CCCN(Cc3sc(C)nc3C)C2)C(=O)N4)ccn1 [Compound 195]
Cc1cc(-c2n[nH]c3cc4c(cc23)CN([C@@H]2CCCN(Cc3cc(C(C)(C)C)no3)C2)C(=O)N4)ccn1 [Compound 186]
Cc1cc(-c2n[nH]c3cc4[nH]c(=O)n(Cc5cccc(Cl)c5)c(=O)c4cc23)ccn1 [Compound 24]
Cc1cc(-c2n[nH]c3cc4[nH]c(=O)n(CCc5ccccc5)c4cc23)ccn1 [Compound 20]
Cc1cc(-c2n[nH]c3cc4c(cc23)CN([C@@H](C)c2cccc(Cl)c2)C(=O)N4)ccn1 [Compound 28]

same assay, conditions: In vitro, ERK2 enzyme 0.47 ng/μL, 100 μM ATP

IC50, < 0.05 µM:
Cc1cc(-c2n[nH]c3cc4c(cc23)CN([C@@H]2CN(CC(F)F)C[C@H]2c2ccccc2)C(=O)N4)cc(C)n1 (mixture of isomers) [Compound 379]
Cc1cc(-c2n[nH]c3cc4[nH]c(=O)c(CC5CCCCC5)cc4cc23)ccn1 [Compound 266]
O=C1Nc2cc3[nH]nc(-c4ccnnc4)c3cc2CN1[C@@H]1CN(CC(F)(F)F)C[C@H]1c1ccccc1 [Compound 340]
Cc1cc(-c2n[nH]c3cc4c(cc23)CN([C@@H]2CCN(CC(F)(F)F)C2)C(=O)N4)ccn1 [Compound 214]
Cc1cc(-c2n[nH]c3cc4c(cc23)CN([C@@H]2CN(C)C[C@H]2c2ccccc2)C(=O)N4)cc(C)n1 [Compound 308]
Cc1ncc(-c2n[nH]c3cc4c(cc23)CN([C@@H]2CN(CC(F)(F)F)C[C@H]2c2ccccc2)C(=O)N4)cn1 [Compound 349]
Cc1cc(-c2n[nH]c3cc4c(cc23)CN([C@@H]2CN(CC(F)(F)F)C[C@H]2C)C(=O)N4)ccn1 (racemic) [Compound 302]
Cc1cc(-c2n[nH]c3cc4c(cc23)CN([C@@H]2CCN(CC(F)(F)F)C2)C(=O)N4)cc(C)n1 [Compound 237]
Cc1cc(-c2n[nH]c3cc4c(cc23)CN([C@H]2CCCN(Cc3ccccc3)C2)C(=O)N4)cc(C)n1 [Compound 363]
CC(c1ccccc1)c1cc2cc3c(-c4cnn(C)c4)n[nH]c3cc2[nH]c1=O (stereo not drawn) [Compound 333]
Cn1cc(-c2n[nH]c3cc4c(cc23)CN([C@@H]2CCCN(Cc3ccccc3)C2)C(=O)N4)cn1 [Compound 285]
Nc1ncc(-c2n[nH]c3cc4c(cc23)CN([C@@H]2CN(CC(F)(F)F)C[C@H]2c2ccccc2)C(=O)N4)cn1 [Compound 351]
Cc1cc(-c2n[nH]c3cc4c(cc23)CN(C2CN(Cc3ccccc3)CC(F)(F)C2)C(=O)N4)ccn1 (stereo not drawn) [Compound 200]
CC(c1ccccc1)c1cc2cc3c(-c4ccc(=O)n(C)c4)n[nH]c3cc2[nH]c1=O (stereo not drawn) [Compound 347]
COc1ccc(-c2n[nH]c3cc4c(cc23)CN([C@@H]2CN(CC(F)(F)F)C[C@H]2c2ccccc2)C(=O)N4)cn1 [Compound 374]
CC(c1ccccc1)c1cc2cc3c(NC4CCOCC4)n[nH]c3cc2[nH]c1=O (stereo not drawn) [Compound 338]
CC(c1ccccc1)c1cc2cc3c(-c4ccncc4)n[nH]c3cc2[nH]c1=O (stereo not drawn) [Compound 326]
Cc1cc(-c2n[nH]c3cc4c(cc23)CN([C@@H]2CCCN(CC(=O)C(C)C)C2)C(=O)N4)ccn1 [Compound 209]
CC(c1ccccc1)c1cc2cc3c(-c4cccnc4)n[nH]c3cc2[nH]c1=O (stereo not drawn) [Compound 330]
Cc1cc(-c2n[nH]c3cc4c(cc23)CN([C@@H]2CN(CC(F)(F)F)C[C@H]2c2ccccc2)C(=O)N4)ccn1 [Compound 304]
Cc1cc(-c2n[nH]c3cc4c(cc23)CN([C@@H]2CCCN(C(C)C)C2)C(=O)N4)ccn1 [Compound 247]
Cc1cc(-c2n[nH]c3cc4c(cc23)CN([C@@H]2CNC[C@H]2c2ccccc2)C(=O)N4)ccn1 (racemic) [Compound 223]
Cc1cc(-c2n[nH]c3cc4c(cc23)CN([C@@H]2CCCN(Cc3ccc(F)s3)C2)C(=O)N4)ccn1 [Compound 290]
Cc1cc(-c2n[nH]c3cc4[nH]c(=O)c(C(O)c5ccccc5)cc4cc23)ccn1 (stereo not drawn) [Compound 221]
Cn1cc(-c2n[nH]c3cc4c(cc23)CN([C@@H]2CN(CC(F)(F)F)C[C@H]2c2ccccc2)C(=O)N4)ccc1=O [Compound 346]
Cc1cc(-c2n[nH]c3cc4c(cc23)CN(Cc2ccccc2)C(=O)N4)ccn1 [Compound 372]
CCN1CC[C@@H](N2Cc3cc4c(-c5ccnc(C)c5)n[nH]c4cc3NC2=O)C1 [Compound 256]
Cc1cc(-c2n[nH]c3cc4c(cc23)CN(CC2CC2)C(=O)N4)ccn1 [Compound 258]

IC50, 0.25 to 1 µM:
CN(C)CCN1CCN(c2n[nH]c3cc4c(cc23)CN(Cc2ccc(F)c(Cl)c2)C(=O)N4)CC1 [Compound 260]
Cc1cc(-c2n[nH]c3cc4c(cc23)CN(C2CN(Cc3cc(F)cc(F)c3)CC(F)(F)C2)C(=O)N4)ccn1 (stereo not drawn) [Compound 202]
Cn1nccc1-c1n[nH]c2cc3c(cc12)CN([C@@H]1CN(CC(F)(F)F)C[C@H]1c1ccccc1)C(=O)N3 [Compound 350]

IC50, 0.05 to 0.25 µM:
Cc1cc(-c2n[nH]c3cc4c(cc23)CN([C@H]2CCCN(CC(F)(F)F)C2)C(=O)N4)ccn1 [Compound 309]
Cc1cc(-c2n[nH]c3cc4c(cc23)CN([C@H]2CN(C(C)C)C[C@@H]2c2ccccc2)C(=O)N4)ccn1 [Compound 296]
Cc1cc(-c2n[nH]c3cc4[nH]c(=O)c(C5CCCN(Cc6ccccc6)C5)cc4cc23)cc(C)n1 (stereo not drawn) [Compound 360]
COc1ncc(-c2n[nH]c3cc4c(cc23)CN(C2CN(Cc3ccccc3)CC(F)(F)C2)C(=O)N4)cn1 (stereo not drawn) [Compound 320]
